This note sets out measurements from patent publication US12018021B2 (UCB Biopharma SRL, priority 2018, dated 2024).

A value given as a limit tells only on which side of the number the result lay.

The assay has as its target IgE-Tb / FcεRIα-Y131A-AF488 (Homo sapiens, UniProt P01854). Briefly: IgE-Tb / FcεRIα-Y131A-AF488 FRET assay (protocol for examples 1 to 233). The format is binding. To be noted: examples 1 to 233: 5 nM IgE-Tb, 25 nM FcεRIα-Y131A-AF488, incubated 2 hours at room temperature; read-out: Y131A FRET IC50 range. The method, boiled down:
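TR-FRET displacement with 5 nM IgE-Tb and 25 nM FcεRIα-Y131A-AF488 (final), 10-point 3-fold compound dilutions from typically 10 μM top, 2% DMSO, 2 h at room temperature. Excitation 330 nm, 520/495 nm emission ratio; MIN set with 200 nM unlabelled FcεRIα. IC50 from four-parameter logistic fit of percent inhibition.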

IgE-Tb / FcεRIα-Y131A-AF488, sequence (P01854 1-427 limits assumed, stated change not applied): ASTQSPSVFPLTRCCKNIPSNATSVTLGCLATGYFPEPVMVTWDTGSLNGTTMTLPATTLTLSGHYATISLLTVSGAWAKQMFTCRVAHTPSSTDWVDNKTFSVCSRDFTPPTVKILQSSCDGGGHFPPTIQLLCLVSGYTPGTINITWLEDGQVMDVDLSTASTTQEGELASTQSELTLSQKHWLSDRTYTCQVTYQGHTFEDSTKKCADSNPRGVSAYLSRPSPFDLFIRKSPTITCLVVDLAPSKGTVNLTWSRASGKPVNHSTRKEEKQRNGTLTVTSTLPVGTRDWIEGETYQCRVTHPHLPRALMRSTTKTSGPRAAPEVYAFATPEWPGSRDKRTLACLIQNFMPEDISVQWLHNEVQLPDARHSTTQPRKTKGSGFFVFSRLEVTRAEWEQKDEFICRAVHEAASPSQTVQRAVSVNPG

What is called IC50 is the concentration that inhibits the measured activity by half. Turning to `O=C(NCC1CC1)c1c(NC(=O)C2CC2)sc2c1C[C@@H](Nc1ncc[nH]1)CC2` [Example 166, (5S)-2-(Cyclopropanecarbonylamino)-N-(cyclopropylmethyl)-5-(1H-imidazol-2-ylamino)-4,5,6,7-tetrahydrobenzothiophene-3-carboxamide], the IC50 is < 1 µM. The result for `Cc1cc(Nc2nncn2C2CCc3sc(NC(=O)C4CC4)c(S(=O)(=O)NCC(C)C)c3C2)n(C)n1` (stereo not drawn) [Example 167] reads < 1 µM; that for `CON=C(Nc1ccc(C)cc1)NC1CCc2sc(NC(=O)C3CC3)c(C(=O)NCC3CC3)c2C1` (stereo not drawn) [Example 168, 2-(Cyclopropanecarbonylamino)-N-(cyclopropylmethyl)-5-[[N′-methoxy-N-(p-tolyl)carbamimidoyl]amino]-4,5,6,7-tetrahydrobenzothiophene-3-carboxamide], < 1 µM; that for `Cc1ccc(NC2=NS(=O)(=O)N=C2NC2CCc3sc(NC(=O)C4CC4)c(C(=O)NCC4CC4)c3C2)cc1` (stereo not drawn) [Example 169, 2-(Cyclopropanecarbonylamino)-N-(cyclopropylmethyl)-5-[[4-(4-methylanilino)-1,1-dioxo-1,2,5-thiadiazol-3-yl]amino]-4,5,6,7-tetrahydrobenzothiophene-3-carboxamide], < 1 µM. Under `O=C(NCC1CC1)c1c(NC(=O)C2CC2)sc2c1C[C@@H](Nc1nccn1-c1cccnc1)CC2` [Example 170, (5S)-2-(Cyclopropanecarbonylamino)-N-(cyclopropylmethyl)-5-[[1-(3-pyridyl)imidazol-2-yl]amino]-4,5,6,7-tetrahydrobenzothiophene-3-carboxamide] stands 1 to 10 µM; under `Nc1cnnn1C1CCc2sc(NC(=O)C3CC3)c(C(=O)NCC3CC3)c2C1` (stereo not drawn) [Example 171, 5-(5-Aminotriazol-1-yl)-2-(cyclopropanecarbonylamino)-N-(cyclopropylmethyl)-4,5,6,7-tetrahydrobenzothiophene-3-carboxamide], < 1 µM. Consider `COc1ccccc1NC(=O)NC1CCc2sc(NC(=O)C3CC3)c(C(=O)NCC3CC3)c2C1` (stereo not drawn) [Example 172, 2-(Cyclopropanecarbonylamino)-N-(cyclopropylmethyl)-5-[(2-methoxyphenyl)carbamoylamino]-4,5,6,7-tetrahydrobenzothiophene-3-carboxamide], for which the IC50 is < 1 µM.

In the case of `O=C(NC1CCc2sc(NC(=O)C3CC3)c(C(=O)NCC3CC3)c2C1)c1ccncc1` (stereo not drawn) [Example 173, N-[2-(Cyclopropanecarbonylamino)-3-(cyclopropylmethylcarbamoyl)-4,5,6,7-tetrahydrobenzothiophen-5-yl]pyridine-4-carboxamide], the IC50 is 1 to 10 µM. The result for `O=C(NCC1CC1)c1c(NC(=O)C2CC2)sc2c1CC(NCc1ccccc1)CC2` (stereo not drawn) [Example 174, 5-(Benzylamino)-2-(cyclopropanecarbonylamino)-N-(cyclopropylmethyl)-4,5,6,7-tetrahydrobenzothiophene-3-carboxamide] reads 10 to 50 µM; that for `O=C(NCC1CC1)c1c(NC(=O)C2CC2)sc2c1CC(Nc1nc3ccccc3[nH]1)CC2` (stereo not drawn) [Example 175, 5-(1H-Benzimidazol-2-ylamino)-2-(cyclopropanecarbonylamino)-N-(cyclopropylmethyl)-4,5,6,7-tetrahydrobenzothiophene-3-carboxamide], < 1 µM; that for `NC(=NO)NC1CCc2sc(NC(=O)C3CC3)c(C(=O)NCC3CC3)c2C1` (stereo not drawn) [Example 176, 2-(Cyclopropanecarbonylamino)-N-(cyclopropylmethyl)-5-[[N′-hydroxycarbamimidoyl]amino]-4,5,6,7-tetrahydrobenzothiophene-3-carboxamide], < 1 µM. `Cc1ccc(NC(=Nc2ccn(C)n2)NC2CCc3sc(NC(=O)C4CC4)c(C(=O)NCC4CC4)c3C2)cc1` (stereo not drawn) [Example 177, 2-(Cyclopropanecarbonylamino)-N-(cyclopropylmethyl)-5-[[N′-(1-methylpyrazol-3-yl)-N-(p-tolyl)carbamimidoyl]amino]-4,5,6,7-tetrahydrobenzothiophene-3-carboxamide; formic acid]: the IC50 lay in the range of 1 to 10 µM.
